SMILES strings stand for the structures.

Test [1] deals with LE/L membrane tubule projection, COS-7 cells. Description: LE/L tubule projection of NPC1-containing membranes with microtubule drugs. The class given is cell-based. The settings on record: FP-tagged NPC1 membranes, live-cell imaging. An excerpt:
Although it is well-accepted that mutations in NPC1 are responsible for ˜95% of human cases of NPC disease, there is less consensus on the specific cellular activities NPC1 is responsible for. For example, both the N-terminal domain and the sterol-sensing domain of NPC1 are thought to bind cholesterol and mediate the movement of lumenal cholesterol across the limiting membrane of LE/Ls. However, the lipids that over-accumulate in NPC disease are not limited to cholesterol and include oxysterols, sphingolipids, gangliosides and GPI-anchored proteins. Furthermore, the pathological accumulations of cholesterol have been proposed to affect the functional state of LE/Ls directly, including perturbing calcium uptake, autophagy/mitophagy and the thickness of the glycocalyx. However, the specific ways in which NPC1 mutations affect these parameters remain unclear. With this wide range of unknowns in mind, we generated a FP-tagged NPC1 plasmid construct for expression in mammalian cells. […] Also overlapping with previous observations, LE/L membranes incorporating FP-tagged NPC1 projected a population of long, slender, dynamic membrane tubules that emerged from the surface of stationary LE/Ls and extended towards the cell periphery (See Sterling, FIG. 1A and Sup Vid. 1). […]

The subject of test [2] is lysosomal tubulation. As to the kind of experiment: Rescue of lysosomal tubulation with purified oxysterols in LDL-depleted media (FIG. 4). In kind it is cell-based. The note with it: media depleted of LDL supplemented with the oxysterol; 24-HC p<0.005, 25-HC p<0.0001. As to the method: FIG. 4. Rescue of Lysosomal Tubulation with Purified Oxysterols. Measurements of lysosomal tubulation comparing control complete media (Control) to media depleted of LDL (LDL−) and depleted media supplemented with 27-hydroxycholesterol (27-HC), 24-hydroxycholesterol (24-HC) or 25-hydroxycholesterol (25-HC).
Fixed and live-cell imaging was performed on COS-7 cells grown in Dulbecco's Modified Eagle's Medium (DMEM) supplemented with 10% fetal bovine serum, 1% L-glutamine, and penicillin/streptomycin (Sigma-Aldrich). Transfections were performed using either Lipofectamine (Life Technologies), X-treme Gene DNA Transfection reagent (Roche, Indianapolis, IN) or Nanofect (Allstem, Richmond, CA). J774A.1 mouse macrophages were provided and cultured in the same media. Cells were tested for contamination using PCR-based test kits (Sartorius, Inc.; Cat #SMB95-1001).
Microscopy experiments were performed on a Zeiss Axiovert 200M (Thornwood, NY) run by Metamorph software (Sunnyvale, CA). Fixed and live cell imaging data was collected using either a Photometrics Coolsnap HQ or Cascade 1k CCD camera (Tucson, AZ). Timelapse imaging of cells expressing NPC1-EGFP and mCherry-StARD9 utilized a Dual-view camera (Photometrics) adapter to allow simultaneous acquisition of green and red channels at each timepoint. Kymographs were generated in Metamorph using a 1p m slice from each frame.
To test this idea, we treated either NPC1 mutant (null or I1061T) or StARD9 mutant (null or truncation mutant) cells with 27-HC in a cocktail that delivers it into the cytoplasm independent of receptor-mediated endocytosis. […] Next, we treated NPC1(−/−) mice with 27-HC by i.p. delivery.

As to `COC(=O)Nc1nc2ccc(C(=O)c3cccs3)cc2[nH]1` [nocodazole], the “Effect on LE/L tubule projection” value in test [1] was “inhibited”.
On to `C[C@H](CCCC(C)(C)O)[C@H]1CC[C@H]2[C@@H]3CC=C4C[C@@H](O)CC[C@]4(C)[C@H]3CC[C@]12C` [25-HC, 25-hydroxycholesterol], for which, in test [2], the “Rescue of lysosomal tubulation compared with 27-HC” value is recorded as “significantly lower that 27-HC”.
As for `CC(=O)O[C@H]1C(=O)[C@@]2(C)[C@H]([C@H](OC(=O)c3ccccc3)[C@]3(O)C[C@H](OC(=O)[C@H](O)[C@@H](NC(=O)c4ccccc4)c4ccccc4)C(C)=C1C3(C)C)[C@]1(OC(C)=O)CO[C@@H]1C[C@@H]2O` [taxol], in test [1], the “Effect on LE/L tubule projection” value is reported as “inhibited”.
Turning to `CC(C)C(O)CC[C@@H](C)[C@H]1CC[C@H]2[C@@H]3CC=C4C[C@@H](O)CC[C@]4(C)[C@H]3CC[C@]12C` (stereo partly shown) [24-HC, 24-hydroxycholesterol], the “Rescue of lysosomal tubulation compared with 27-HC” value in test [2] is on record as “significantly lower that 27-HC”.

For the origin of these results see patent publication US20250114377A1, “TWO-PRONGED TREATMENT FOR NIEMANN PICK TYPE C DISEASE” (UNIVERSITY OF NOTRE DAME DU LAC, priority 2022, published 2025).
